Laboratory results taken from patent US12156912B2, “Methods and compositions for inhibiting diseases of the central nervous system” (Board of Regents of the University of Nebraska, priority 2012, dated 2024).
Square brackets hold non-standard residues; d marks the D form. Ends that are not written are not given here. Tyr(3-NO2) = N[C@@H](Cc1ccc(O)c([N+](=O)[O-])c1)C(=O)O

Test system: splenocytes of mice immunized with N-4YSyn
Assay: 3H-thymidine in vitro proliferation assay of splenocytes stimulated with antigen or test peptide
Type: cell-based, mice (C57BL/6J)
Settings: splenocytes from N-4YSyn/CFA immunized mice; 30 μg/ml antigen or peptide, 5 days; vs media control; no response in PBS immunized mice
Method: B6 (H-2^b) mice were immunized with PBS or 50 μg of N-4YSyn (nitrated C-terminal 40 amino acid α-Syn fragment) in complete Freund's adjuvant (CFA) administered subcutaneously (s.c.). Seven days after primary immunization, mice were boosted with another 50 μg of antigen emulsified in IFA (Sigma-Aldrich). Seven days following their final immunizations, donor mice were sacrificed and single cell suspensions were prepared from the spleen.
Samples of pooled splenocytes were tested for their proliferative capacity by ^3H-thymidine incorporation after stimulation with either immunizing antigen or test peptide. Splenocytes were plated at a density of 2×10^6 cells/ml complete RPMI tissue culture media (RPMI 1640 supplemented with 10% fetal bovine serum (FBS), 2 mM L-glutamine, 10 mM HEPES, 1 mM sodium pyruvate, 1× nonessential aa, 55 μM 2-mercaptoethanol, 100 U/ml penicillin, and 100 μg/ml streptomycin (Mediatech Inc., Herndon, VA)). Splenocytes from PBS or N-4YSyn immunized mice were stimulated with 0 or 30 μg/ml of immunizing antigen N-4YSyn or 30 μg/ml of the non-nitrated or nitrated peptide indicated, and cultured at 37° C. for 5 days. Cells were pulsed with […] ^3H-thymidine/well for the final 18 hours of culture, harvested onto glass fiber plates, and counted by β-scintillation spectrometry (TopCount, Packard-PerkinElmer Instruments, Wellesley, MA).
To test immune responses to particular epitopes within N-α-Syn, mice were immunized with N-4YSyn or PBS emulsified in complete Freund's adjuvant (CFA). Seven days following the initial immunization, mice were boosted with their respective immunogens emulsified in incomplete Freund's adjuvant (IFA). Seven days later, mice were sacrificed and splencoytes were tested for antigen-specific T cell proliferative responses to N-4YSyn or peptide epitope (nitrated or non-nitrated; Table 1).

Sequence | proliferative response (3H-thymidine incorporation)
GILEDMPVDPGSEAY (GILEDMPVDPGSEA[Tyr(3-NO2)]; listed as Mus musculus) [Peptide 23, murine α-synuclein positions 111-125, nitrated tyrosine] | significant proliferative response
MPVDPGSEAYEMPSE (MPVDPGSEA[Tyr(3-NO2)]EMPSE; listed as Mus musculus) [Peptide 24, murine α-synuclein positions 116-130, nitrated tyrosine] | significant proliferative response
GYPQEGILEDMPVDP (G[Tyr(3-NO2)]PQEGILEDMPVDP; listed as Mus musculus) [Peptide 22, murine α-synuclein positions 106-120, nitrated tyrosine] | significant proliferative response
GSEAYEMPSEEGYQD (GSEA[Tyr(3-NO2)]EMPSEEG[Tyr(3-NO2)]QD; listed as Mus musculus) [Peptide 25, murine α-synuclein positions 121-135, nitrated tyrosines] | significant proliferative response
